From patent US20060095979A1, “Transgenic mice containing CLCN4 chloride ion channel gene disruptions” (priority 2001, published 2006)

Test system: mouse
Assay: Metrazol Test (tail vein infusion, seizure susceptibility)
Type: in vivo
Settings: for Metrazol Dose Required for First Twitch: Dose at First Twitch: about 5 mg/ml infused through tail vein at about 0.375 ml/min
Experimental: A metrazol administration test can be used to screen animals for varying susceptibilities to seizures or similar events. For example, a 5 mg/ml solution of metrazol can be infused through the tail vein of a mouse at a rate of, e.g., approximately 0.375 ml/min. The infusion will cause all mice to experience seizures, followed by death. Those mice that enter the seizure stage the soonest are believed to be more prone to seizures.
To screen for phenotypes involving changes in seizure susceptibility, the Metrazol Test was be used. About 5 mg/ml of Metrazol was infused through the tail vein of the mouse at a constant rate of about 0.375 ml/min. The infusion caused all mice to experience seizures. Those mice who entered the seizure stage the quickest were thought to be more prone to seizures in general.
The Metrazol test can also be used to screen for phenotypes related to epilepsy. Seven to ten adult wild-type and homozygote males were used. A fresh solution of about 5 mg/ml pentylenetetrazole in approximately 0.9% NaCl was prepared prior to testing. Mice were weighed and loosely held in a restrainer. After exposure to a heat lamp to dilate the tail vein, mice were continuously infused with the pentylenetetrazole solution using a syringe pump set at a constant flow rate. The following stages were recorded: first twitch (sometimes accompanied by a squeak), beginning of the tonic/clonic seizure, tonic extension and survival time. The dose required for each phase was determined and the latency to each phase was determined between genotypes. Alterations in any stage may indicate an overall imbalance in excitatory or inhibitory neurotransmitter levels.

C1CCc2nnnn2CC1 [Metrazol, pentylenetetrazole]
dose of metrazol to induce the first twitch response, homozygous mutant (−/−) compared to wild-type (+/+) control mice (age- and gender-matched mice): higher dose
Metrazol Dose Required for First Twitch: Dose at First Twitch (homozygous mutant (−/−) CLCN4 male mice): 34.14 mg/kg
Metrazol Dose Required for First Twitch: Dose at First Twitch (wild-type (+/+) male mice): 28.06 mg/kg
